Legend:
[1] = system: RPMI 8226 cells; assay: Cell viability CTG assay in BCL-2i insensitive RPMI 8226 MM cells; assay type: cell-based
Protocol: (§1) Cell viability was determined using CellTiter-Glo® luminescent cell viability assay (Promega) or WST assay (Cell counting Kit-8, Shanghai life iLab, China) by following manufacturer's instruction. Cell viability was calculated as cell viability=(mean RLU sample−mean RLU blank)/(RLU cell control−RLU blank)×100. IC50 value was calculated using GraphPad Prism. Combination index (CI) value was calculated by CalcuSyn software (BIOSOFT, UK). CI<0.9 indicate a synergistic combination effect. CI<0.1 scored as 5+ indicates very strong synergistic combination effect, CI between 0.1 and 0.3 scored as 4+ indicates strong synergistic combination effect, CI between 0.3 and 0.7 scored as 3+ indicates medium synergistic combination effect.
Method used was the cell viability CTG assay.

[2] = system: platelet; details: compared with Compound E; cited from earlier work
[3] = system: MM1.S; assay: CDX model of MM1.S; assay type: in vivo
[4] = system: KMS34; assay: CDX model of KMS34; assay type: in vivo
[5] = system: RS4;11 cells carrying different Bcl-2 mutation; assay: Cell viability CTG assay in RS4;11 cells, wild type and Bcl-2 mutants; assay type: cell-based, human
Protocol: Cell viability was determined using CellTiter-Glo® luminescent cell viability assay (Promega) or WST assay (Cell counting Kit-8, Shanghai life iLab, China) by following manufacturer's instruction. Cell viability was calculated as cell viability=(mean RLU sample−mean RLU blank)/(RLU cell control−RLU blank)×100. IC50 value was calculated using GraphPad Prism. Combination index (CI) value was calculated by CalcuSyn software (BIOSOFT, UK). CI<0.9 indicate a synergistic combination effect. CI<0.1 scored as 5+ indicates very strong synergistic combination effect, CI between 0.1 and 0.3 scored as 4+ indicates strong synergistic combination effect, CI between 0.3 and 0.7 scored as 3+ indicates medium synergistic combination effect. Method used was the cell viability CTG assay. RS4;11 cells were established from the bone marrow of a patient with acute lymphoblastic leukemia (ALL).

[6] = system: NCI-H929; assay: Cell viability CTG assay in BCL-2i resistant MM model NCI-H929; assay type: cell-based; details: insensitive or resistant to BCL-2 inhibitor
Protocol: as §1
Method used was the cell viability CTG assay. BCL-2i resistant MM mode NCI-H929 was established.

[7] = system: MM1.S; assay: Cell death in Venetoclax-resistant MM cell line MM1.S; assay type: cell-based; details: compared with Venetoclax and Navitoclax
[8] = system: KMS34; assay: Cell death in Venetoclax-resistant MM cell line KMS34; assay type: cell-based; details: compared with Venetoclax and Navitoclax
[9] = system: KMS27 drug-resistant (DTEP) clones; assay: Venetoclax-resistant DTEP clones of KMS27 MM cell line: proliferation and apoptosis; assay type: cell-based
Description: Compared with the parent cells, IC50 is increased by at least 3 to 10 times.

[10] = system: primary MM cells; assay: Primary MM cells from 4 MM patients in vitro; assay type: cell-based, human; details: compared with venetoclax
Description: The activity of compound E was confirmed in primary MM cells in vitro.

Compound `O=C(NS(=O)(=O)c1ccc(NC[C@H]2COCCO2)c([N+](=O)[O-])c1)c1ccc(N2CCN(CC3=C(c4ccc(Cl)cc4)CC4(CCC4)CC3)CC2)cc1Oc1cnc2[nH]ccc2c1` [APG-2575, (S)—N-((4-(((1,4-dioxan-2-yl)methyl)amino)-3-nitrophenyl)sulfonyl)-2-((1H-pyrrolo[2,3-b]pyridin-5-yl)oxy)-4-(4-((6-(4-chlorophenyl)spiro[3.5]non-6-en-7-yl)methyl)piperazin-1-yl)benzamide] has an IC50 ([1]; Homo sapiens, RPMI 8226 cells, CTG) of 5.58 µM.

In the case of `Cc1c(S(C)(=O)=O)c(-c2cc(F)cc(N3CCN(c4ccc(NS(=O)(=O)c5ccc(N[C@H](CCN6CCC(C(=O)OCCCP(=O)(O)O)CC6)CSc6ccccc6)c(S(=O)(=O)C(F)(F)F)c5)cc4)CC3)c2)c(-c2ccc(Cl)cc2)n1C(C)C` [compound D, (3R)-1-(3-(4-(4-(4-(3-(2-(4-chlorophenyl)-1-isopropyl-4-methylsulfonyl-5-methyl-1H-pyrrol-3-yl)-5-fluorophenyl)piperazin-1-yl)-phenylaminosulfonyl)-2-trifluoromethylsulfonyl-anilino)-4-phenylthio-butyl)-piperidine-4-carboxylic acid 3-phosphonopropyl ester], the platelet toxicity [2] is given as “lower platelet toxicity”, the “efficacy in CDX model” value [3] is given as “also effective” and the “efficacy in CDX model” value [4] is given as “also effective”.

In the case of `CCN1[C@@H](C(=O)NC23CCC(C(=O)O)(CC2)CC3)[C@H](c2cccc(Cl)c2F)[C@]2(C(=O)Nc3cc(Cl)ccc32)C12CCCCC2` [APG-115], the cell viability ([5]; RS4;11-WT and RS4;11 carrying G101V, D103E, V156D, G101V-D103E, CTG) is reported as “effectively decrease cell viability” and the “IC50 (CTG 72 h) compared with ABT-199 (venetoclax)” value ([5]; all RS4;11 cell lines (WT and Bcl-2 mutants), 72 h) is reported as “lower than those of ABT-199 (venetoclax) in all cell lines”.

For `CN[C@@H](C)C(=O)N[C@H]1CN(S(=O)(=O)c2cccc(S(=O)(=O)N3CC[C@H]4CC[C@@H](C(=O)NC(c5ccccc5)c5ccccc5)N4C(=O)[C@@H](NC(=O)[C@H](C)NC)C3)c2)CC[C@H]2CC[C@@H](C(=O)NC(c3ccccc3)c3ccccc3)N2C1=O` [APG-1387], the “inhibition of cell proliferation” value [6] was “single agent activity to inhibit cell proliferation”.

With `Cc1c(S(C)(=O)=O)c(-c2cc(F)cc(N3CCN(c4ccc(NS(=O)(=O)c5ccc(N[C@H](CCN6CCC(C(=O)O)CC6)CSc6ccccc6)c(S(=O)(=O)C(F)(F)F)c5)cc4)CC3)c2)c(-c2ccc(Cl)cc2)n1C(C)C` [APG-1252M1] the cell death induction [7] was “the most effective in inducing cell death”, the “inhibition of cell proliferation” value ([1]; RPMI 8226 model, insensitive to BCL-2 inhibitor) was “single agent activity in inhibiting cell proliferation” and the cell death induction [8] was “the most effective in inducing cell death”. For the same compound, the apoptosis [9] was “induced apoptosis”, the “proliferation of drug-resistant clones” value ([9]; compared with Venetoclax) was “successfully inhibited the proliferation of drug-resistant clones” and the “activity in primary MM cells” value [10] was “higher than venetoclax”.

From patent US20250099440A1, “A PHARMACEUTICAL COMBINATION AND USE THEREOF” (Ascentage Pharma (Suzhou) Co., Ltd., priority 2021, published 2025)
